In US6969583B2, “Method for detecting variant HBV” (Melbourne Health, priority 2000, dated 2005):
Where two headings read alike, the source gives them in different places.

Assays:
Assay type in all cases: cell-based, Hepatitis B virus
[1] = system: M550I recombinant HBV-baculovirus; test: Antiviral testing, M550I recombinant HBV-baculovirus in HepG2 cells (Example 17); conditions: Hepatitis B virus, HepG2, intracellular single-stranded HBV DNA, NDR = no dose response, read-out: IC50 (μM), IC SS
Description: (§1) HepG2 cells were seeded at approximately 20-40% confluency and then were grown for 16-24 hours before infection. On the day of infection, triplicate plates of cells were trypsinized, and viable cell number was determined with a hemocytometer using Trypan blue exclusion. Average cell counts were calculated and used to determine the volume of high-titer viral stock necessary to infect cells at the indicated moi. HepG2 cells were washed one time with serum-free MEM to remove traces of serum. Baculovirus was diluted into MEM without serum to achieve the appropriate moi using volumes of 1.0, 0.5, and 0.25 ml to infect 100-mm, 60 mm, and 35-mm dishes, respectively. Baculovirus was adsorbed to HepG2 cells for one hour at 37° C. with gentle rocking every 15 minutes to ensure that the inoculum was evenly distributed. The inoculum was then aspirated and HepG2 cells were washed two times with phosphate-buffered saline and refed MEM-FBS with or without various concentrations of agents.
(§2) HBV core particles were isolated from the cytoplasmic fraction of HepG2 cells lysed in 0.5% w/v NP-40. […]
(§3) Conditioned medium was collected from HepG2 cells and subjected to centrifugation at 6,000 g for five minutes to remove cellular debris. […] DNA was then analyzed by electrophoresis and Southern blotting. […]

[2] = system: wild-type (WT) recombinant HBV-baculovirus; test: Antiviral testing, wild-type (1.3x genomic length) recombinant HBV-baculovirus in HepG2 cells (Example 17)
Description: as §1
(§4) HBV core particles were isolated from the cytoplasmic fraction of HepG2 cells lysed in 0.5% w/v NP-40. Cytoplasmic extracts were adjusted to 10 mmol/l McC12 and unprotected DNA was removed by an incubation to […] for 1.5 hours at 37° C. Following sequential phenol and chloroform extractions, nucleic acids were recovered by ethanol precipitation. Nucleic acids were resuspended in 50 μl/l TE (10 mmol/l Tris, 1 mmol/l ethylenedianinetetraacetic acid), normalized by OD260, and digested with 100 μg/ml RNase (Boehringer Mannheim, Indianapolis, Ind.) for one hour at 37° C. before analysis by electrophoresis and Southern blotting. A BioRad GS-670 imaging densitometer and the Molecular Analyst software (BioRad, Hecules Calif.) was used to analyze suitable exposures of Southern blots. Densitometry data was fitted to logistic dose response curves using the TableCurve2D software package from Jandel Scientific. Logistic dose response equations were used to calculate IC50 and IC90 values and co-efficients of variation.
(§5) Conditioned medium was collected from HepG2 cells and subjected to centrifugation at 6,000 g for five minutes to remove cellular debris. HBV particles were precipitated with 10% w/v PEG 8000 and were concentrated by centrifugation at 12,000 ×g. Viral pellets were resuspended us 1 ml of MEM-FBS and divided into two aliquots. One set of aliquots was treated with 750 μg/ml Pronase for one hour and then with […] DNase 1 for one hour. Both sets of aliquots were then digested with Proteinase K, and extracted with phenol and chloroform. DNA was precipitated with 0.1 volume of 3 mol/l sodium acetate and 1 volume of isopropanol. Ten micrograms of transfer RNA was added as a carrier during precipitation. Pellets were resuspended in 25 μl of TE and digested with 0.5 mg/ml RNase for one hour. DNA was then analyzed by electrophoresis and Southern blotting.
(§6) 3TC and PCV were a gift from Klaus Esser, SmithKline Beecham, Collegeville, Pa. PMEA was obtained from Gilead (Foster City, Calif.). 3TC was resuspended in sterile water, aliquoted, and frozen at −20° C. to avoid repeated freezing and thawing of the drug. PMEA was resuspended in sterile water after the pH was adjusted to 7.0 with NaOH. PCV was resuspended in dimethyl sulphoxide. Medium containing 3TC was prepared daily as needed using fresh aliquots of 3TC. In experiments in which 3TC treatment was initiated after viral infection, HepG2 cells were exposed to the indicated concentration of 3TC immediately after infection with HBV baculovirus. In experiments utilizing pretreatment with 3TC, cells were fed medium containing 3TC 16 hours prior to HBV baculovirus infection, HBV baculovirus infection was also carried out in medium containing 3TC, and cells were refed fresh medium containing 3TC immediately after completion of the infection and washing procedures. Treatment with PMEA and PCV were conducted in a similar manner.

[3] = system: L526M HBV baculovirus; test: Antiviral testing with L526M HBV baculovirus in HepG2 cells (Example 15)
Description: as §1, §4, §6

[4] = system: Precore/M550I recombinant HBV-baculovirus; test: Antiviral testing, Precore/M550I recombinant HBV-baculovirus in HepG2 cells (Example 17); conditions: Hepatitis B virus, NDR = no dose response
Description: as §1, §4
as §5, with “Pellets were resuspended in 25 μl of TE and digested with 0.5 mg/ml RNase for one hour.” left out, “blotting. […]” for “blotting.”

[5] = system: M550I HBV baculovirus; test: Antiviral testing with M550I HBV baculovirus in HepG2 cells (Example 15)
Description: as §1, §4, §6

[6] = system: Precore/L526M/M550V recombinant HBV-baculovirus; test: Antiviral testing, Precore/L526M/M550V recombinant HBV-baculovirus in HepG2 cells (Example 17); conditions: Hepatitis B virus, NDR = no dose response
Description: as §1, §4
as §5, with “Pellets were resuspended in 25 μl of TE and digested with 0.5 mg/ml RNase for one hour.” left out, “blotting. […]” for “blotting.”

[7] = system: L526M/M550V recombinant HBV-baculovirus; test: Antiviral testing, L526M/M550V recombinant HBV-baculovirus in HepG2 cells (Example 17); conditions: Hepatitis B virus, HepG2, intracellular single-stranded HBV DNA, NDR = no dose response, read-out: IC50 (μM), IC SS
Description: as §1, §2, §3

[8] = system: wild-type HBV baculovirus; test: Antiviral testing with wild-type HBV baculovirus in HepG2 cells (Example 15, Southern blot densitometry)
Description: as §1, §4, §6
The dose effect of 3TC and PMEA, on wild-type HBV is shown graphically in FIG. 6 (A, B,) and a Southern Blot of intracellular HBV replicative intermediates and extracellular virus produced by HepG2 cells transduced with wild-type HBV-baculovirus in the presence of increasing concentrations of PCV is shown in FIG. 6C and the IC50 for each antiviral agent is shown in Table 2.

[9] = system: precore (G1896A) recombinant HBV-baculovirus; test: Antiviral testing of the precore mutant (G1896A) HBV baculovirus in HepG2 cells (Example 17)
Description: as §1, §4, §5, §6

[10] = system: L526M/M550V HBV baculovirus; test: Antiviral testing with L526M/M550V HBV baculovirus in HepG2 cells (Example 15)
Description: as §1, §4, §6

[11] = HepG2, extracellular relaxed circular HBV DNA, read-out: IC50 (μM), EC RC
[12] = HepG2, intracellular single-stranded HBV DNA, read-out: IC50 (μM), IC SS

Question: Which IC50 [1] does the source give for `Nc1ncnc2c1ncn2CCOCP(=O)(O)O` [Adefovir, 9-(2-phosphonylmethoxyethyl)adenine] here?
Answer: 0.94 µM

Question: What about the IC50 ([2]; Hepatitis B virus, HepG2, WT, extracellular relaxed circular HBV DNA, averages where footnoted, read-out: IC50 (μM), EC RC) of the same compound?
Answer: 0.0535 µM

Question: What about the IC50 ([2]; Hepatitis B virus, HepG2, WT, extracellular relaxed circular HBV DNA, individual experiments behind the average, read-out: IC50, single experiments, EC RC) of the same compound?
Answer: 0.06 µM

Question: What about the IC50 ([2]; Hepatitis B virus, HepG2, WT, intracellular single-stranded HBV DNA, averages where footnoted, read-out: IC50 (μM), IC SS) of the same compound?
Answer: 0.235 µM

Question: What about the IC50 ([2]; Hepatitis B virus, HepG2, WT, intracellular single-stranded HBV DNA, individual experiments behind the average, read-out: IC50, single experiments, IC SS) of the same compound?
Answer: 0.25 µM

Question: And the IC50 ([2]; WT, extracellular relaxed circular HBV DNA, individual experiments behind the average, read-out: IC50, single experiments, EC RC)?
Answer: 0.047 µM

Question: What about the IC50 ([2]; WT, intracellular single-stranded HBV DNA, individual experiments behind the average, read-out: IC50, single experiments, IC SS) of the same compound?
Answer: 0.22 µM

Question: What about the “change in sensitivity of L526M compared to wild-type” value ([3]; FIG. 7A-7C, result in words) of the same compound?
Answer: No significant change

Question: What about the inhibition at 1 µM ([3]; Hepatitis B virus, HepG2, 526 (L526M) HBV, ds HBV DNA band density vs untreated controls, estimated from fitted curve, negative = stimulation, read-out: Inhibition at 1 μM) of the same compound?
Answer: 86.2%

Question: And the IC50 ([3]; Hepatitis B virus, 526 (L526M) HBV, ds HBV DNA bands, HepG2 cells, read-out: IC50)?
Answer: 90 nM

Question: And the “Resistance Factor” value ([3]; {})?
Answer: 1

Question: And the IC50 [4, 11]?
Answer: 0.09 µM

Question: And the IC50 [4, 12]?
Answer: 0.28 µM

Question: What about the inhibition at 1 µM ([5]; Hepatitis B virus, HepG2, 550 (M550I) HBV, ds HBV DNA band density vs untreated controls, estimated from fitted curve, negative = stimulation) of the same compound?
Answer: 70%

Question: And the IC50 ([5]; Hepatitis B virus, 550 (M550I) HBV, ds HBV DNA bands, HepG2 cells, read-out: IC50)?
Answer: 310 nM

Question: And the “Resistance Factor” value ([5]; {})?
Answer: 4

Question: And the IC50 [6, 11]?
Answer: 1 µM

Question: And the IC50 [6, 12]?
Answer: 0.47 µM

Question: What about the IC50 [7] of the same compound?
Answer: 0.93 µM

Question: And the inhibition at 1 µM ([8]; Hepatitis B virus, HepG2, wt HBV, ds HBV DNA band density vs untreated controls, estimated from fitted curve, negative = stimulation of replication)?
Answer: 91.6%

Question: What about the IC50 ([8]; Hepatitis B virus, wt HBV, ds HBV DNA bands, HepG2 cells) of the same compound?
Answer: 80 nM

Question: And the “Resistance Factor” value ([8]; {})?
Answer: 1

Question: And the IC50 ([9]; Hepatitis B virus, HepG2, Precore (G1896A), extracellular relaxed circular HBV DNA, averages where footnoted, read-out: IC50 (μM), EC RC)?
Answer: 0.025 µM

Question: And the IC50 ([9]; Hepatitis B virus, HepG2, Precore (G1896A), extracellular relaxed circular HBV DNA, individual experiments behind the average, read-out: IC50, single experiments, EC RC)?
Answer: 0.02 µM

Question: What about the IC50 ([9]; Hepatitis B virus, HepG2, Precore (G1896A), intracellular single-stranded HBV DNA, averages where footnoted, read-out: IC50 (μM), IC SS) of the same compound?
Answer: 0.195 µM

Question: And the IC50 ([9]; Hepatitis B virus, HepG2, Precore (G1896A), intracellular single-stranded HBV DNA, individual experiments behind the average, read-out: IC50, single experiments, IC SS)?
Answer: 0.2 µM

Question: And the IC50 ([9]; Precore (G1896A), extracellular relaxed circular HBV DNA, individual experiments behind the average, read-out: IC50, single experiments, EC RC)?
Answer: 0.03 µM

Question: And the IC50 ([9]; Precore (G1896A), intracellular single-stranded HBV DNA, individual experiments behind the average, read-out: IC50, single experiments, IC SS)?
Answer: 0.19 µM

Question: And the “sensitivity of G1896A HBV compared with wild type HBV” value ([9]; result in words)?
Answer: at least as sensitive

Question: What about the “change in sensitivity of L526M/M550V” value ([10]; FIG. 8A-8C, result in words) of the same compound?
Answer: no substantial change

Question: What about the inhibition at 1 µM ([10]; Hepatitis B virus, HepG2, dual (L526M/M550V) HBV, ds HBV DNA band density vs untreated controls, estimated from fitted curve, negative = stimulation) of the same compound?
Answer: 77%

Question: And the IC50 ([10]; Hepatitis B virus, dual (L526M/M550V) HBV, ds HBV DNA bands, HepG2 cells)?
Answer: 160 nM

Question: And the “Resistance Factor” value ([10]; {})?
Answer: 2
